According to patent US8680159B2, “Bradykinin 1 receptor modulating compounds” (Gruenenthal GmbH, priority 2010, dated 2014):

What follows are compounds tested against T1, B1R receptor of the rat (CHO K1 cells stably transfected with the B1R gene of the rat) (Rattus norvegicus, UniProt P97583) (assay: Functional study on the bradykinin receptor 1 (B1R), Ca2+ fluorescence (Fluo-4) FLIPR/Novostar assay, rB1R cells). Details: CHO-K1, 10 μM, read-out: % Inhibition (r-B1R) at 10 μM.
T1 construct: expressed in transfected cells; host or cells: CHO K1 cells (Chinese hamster ovary), stably transfected
T1 sequence (P97583 1-337): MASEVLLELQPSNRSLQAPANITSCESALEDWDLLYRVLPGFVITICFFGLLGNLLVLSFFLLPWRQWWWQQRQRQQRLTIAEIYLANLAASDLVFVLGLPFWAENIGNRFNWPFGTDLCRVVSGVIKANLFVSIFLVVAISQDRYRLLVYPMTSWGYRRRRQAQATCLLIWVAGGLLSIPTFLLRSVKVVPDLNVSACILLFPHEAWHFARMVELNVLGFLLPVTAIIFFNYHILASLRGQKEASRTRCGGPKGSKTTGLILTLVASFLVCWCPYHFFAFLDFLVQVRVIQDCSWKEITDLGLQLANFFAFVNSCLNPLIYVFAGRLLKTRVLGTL
Assay type: cell-based
Procedure, shortened: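 Test compounds (10 μM) were added first and the Ca2+ rise was scored as % activation against Lys-Des-Arg9-bradykinin (≥50 nM, human) or Des-Arg9-bradykinin (≥1 μM, rat). After 6-20 min, the matching agonist was given at its EC80, and % inhibition relative to maximal achievable inhibition was calculated.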
`CN(C(=O)NC1CCCc2ccc(C(=O)N(C)C3CCN(c4ccncc4)CC3)cc21)c1ccc(Cl)cc1Cl` (stereo not drawn) [CC_H-269, 8-[[(2,4-Dichlorophenyl)-methyl-carbamoyl]amino]-N-methyl-N-(1-pyridin-4-yl-piperidin-4-yl)-5,6,7,8-tetrahydro-naphthalene-2-carboxylic acid amide] was tested, and the inhibition at 10 µM was 109%.
`CN(C(=O)c1ccc2c(c1)C(NS(=O)(=O)C1CCCCC1)CCC2)C1CCN(c2ccncc2)CC1` (stereo not drawn) [CC_H-270, 8-[(Cyclohexylsulfonyl)amino]-N-methyl-N-(1-pyridin-4-yl-piperidin-4-yl)-5,6,7,8-tetrahydro-naphthalene-2-carboxylic acid amide] showed an inhibition at 10 µM of 110%.
For `CC(C)CC(=O)NC1CCCc2ccc(C(=O)N(C)C3CCN(c4ccncc4)CC3)cc21` (stereo not drawn) [CC_H-271, N-Methyl-8-(3-methyl-butanoylamino)-N-(1-pyridin-4-yl-piperidin-4-yl)-5,6,7,8-tetrahydro-naphthalene-2-carboxylic acid amide], the inhibition at 10 µM was 109%.
`CN(C(=O)c1ccc2c(c1)C(NC(=O)c1cc(C(F)(F)F)ccc1Cl)CCO2)C1CCN(c2ccncc2)CC1` (stereo not drawn) [CC_H-272, 4-[[2-Chloro-5-(trifluoromethyl)-benzoyl]amino]-N-methyl-N-(1-pyridin-4-yl-piperidin-4-yl)-3,4-dihydro-2H-chromene-6-carboxylic acid amide] showed an inhibition at 10 µM of 112%.
`Cc1ccc(F)c(C(=O)NC2CCOc3ccc(C(=O)N(C)C4CCN(c5ccncc5)CC4)cc32)c1Cl` (stereo not drawn) [CC_H-273, 4-[(2-Chloro-6-fluoro-3-methyl-benzoyl)amino]-N-methyl-N-(1-pyridin-4-yl-piperidin-4-yl)-3,4-dihydro-2H-chromene-6-carboxylic acid amide] gave an inhibition at 10 µM of 112%.
`CN(C(=O)c1ccc2c(c1)C(NC(=O)C1CC1)CCO2)C1CCN(c2ccncc2)CC1` (stereo not drawn) [CC_H-274, 4-(Cyclopropanecarbonylamino)-N-methyl-N-(1-pyridin-4-yl-piperidin-4-yl)-3,4-dihydro-2H-chromene-6-carboxylic acid amide] showed an inhibition at 10 µM of 91%.
`CN(C(=O)c1ccc2c(c1)C(NC(=O)CC(C)(C)C)CCO2)C1CCN(c2ccncc2)CC1` (stereo not drawn) [CC_H-275, 4-(3,3-Dimethyl-butanoylamino)-N-methyl-N-(1-pyridin-4-yl-piperidin-4-yl)-3,4-dihydro-2H-chromene-6-carboxylic acid amide] showed an inhibition at 10 µM of 111%.
`COCC(=O)NC1CCOc2ccc(C(=O)N(C)C3CCN(c4ccncc4)CC3)cc21` (stereo not drawn) [CC_H-276, 4-[(2-Methoxy-acetyl]amino]-N-methyl-N-(1-pyridin-4-yl-piperidin-4-yl)-3,4-dihydro-2H-chromene-6-carboxylic acid amide] was tested, and the inhibition at 10 µM was 51%.
`CC(=O)NC1CCOc2ccc(C(=O)N(C)C3CCN(c4ccncc4)CC3)cc21` (stereo not drawn) [CC_H-277, 4-Acetylamino-N-methyl-N-(1-pyridin-4-yl-piperidin-4-yl)-3,4-dihydro-2H-chromene-6-carboxylic acid amide] gave an inhibition at 10 µM of 100%.
`Cc1cccc(Cl)c1S(=O)(=O)NC1CCOc2ccc(C(=O)N(C)C3CCN(c4ccncc4)CC3)cc21` (stereo not drawn) [CC_H-278, 4-[[(2-Chloro-6-methyl-phenyl)sulfonyl]amino]-N-methyl-N-(1-pyridin-4-yl-piperidin-4-yl)-3,4-dihydro-2H-chromene-6-carboxylic acid amide] showed an inhibition at 10 µM of 103%.
`CN(C(=O)c1ccc2c(c1)C(NC(=O)c1cccc(C(F)(F)F)c1Cl)CCO2)C1CCN(c2ccncc2)CC1` (stereo not drawn) [CC_H-279, 4-[[2-Chloro-3-(trifluoromethyl)-benzoyl]amino]-N-methyl-N-(1-pyridin-4-yl-piperidin-4-yl)-3,4-dihydro-2H-chromene-6-carboxylic acid amide] was tested, and the inhibition at 10 µM was 111%.
With `CN(C(=O)c1ccc2c(c1)C(NC(=O)Nc1ccccc1Cl)CCO2)C1CCN(c2ccncc2)CC1` (stereo not drawn) [CC_H-280, 4-[[(2-Chlorophenyl)-carbamoyl]amino]-N-methyl-N-(1-pyridin-4-yl-piperidin-4-yl)-3,4-dihydro-2H-chromene-6-carboxylic acid amide] the inhibition at 10 µM was 91%.
Work on `CN(C(=O)c1ccc2c(c1)C(NC(=O)Nc1cccc(Cl)c1)CCO2)C1CCN(c2ccncc2)CC1` (stereo not drawn) [CC_H-281, 4-[[(3-Chlorophenyl)-carbamoyl]amino]-N-methyl-N-(1-pyridin-4-yl-piperidin-4-yl)-3,4-dihydro-2H-chromene-6-carboxylic acid amide] yielded an inhibition at 10 µM of 99%.
In the case of `CN(C(=O)c1ccc2c(c1)C(NC(=O)Nc1cccc(Cl)c1Cl)CCO2)C1CCN(c2ccncc2)CC1` (stereo not drawn) [CC_H-282, 4-[[(2,3-Dichloro-phenyl)-carbamoyl]amino]-N-methyl-N-(1-pyridin-4-yl-piperidin-4-yl)-3,4-dihydro-2H-chromene-6-carboxylic acid amide], the inhibition at 10 µM is reported as 102%.
With `CN(C(=O)c1ccc2c(c1)C(NC(=O)Nc1cc(Cl)ccc1Cl)CCO2)C1CCN(c2ccncc2)CC1` (stereo not drawn) [CC_H-283, 4-[[(2,5-Dichloro-phenyl)-carbamoyl]amino]-N-methyl-N-(1-pyridin-4-yl-piperidin-4-yl)-3,4-dihydro-2H-chromene-6-carboxylic acid amide] the inhibition at 10 µM was 106%.
For `CN(C(=O)c1ccc2c(c1)C(NC(=O)Nc1cc(C(F)(F)F)ccc1Cl)CCO2)C1CCN(c2ccncc2)CC1` (stereo not drawn) [CC_H-285, 4-[[[2-Chloro-5-(trifluoromethyl)-phenyl]-carbamoyl]amino]-N-methyl-N-(1-pyridin-4-yl-piperidin-4-yl)-3,4-dihydro-2H-chromene-6-carboxylic acid amide], the inhibition at 10 µM was 75%.
`CN(C(=O)c1ccc2c(c1)C(NC(=O)Nc1ccc(Cl)cc1Cl)CCO2)C1CCN(c2ccncc2)CC1` (stereo not drawn) [CC_H-286, 4-[[(2,4-Dichlorophenyl)-carbamoyl]amino]-N-methyl-N-(1-pyridin-4-yl-piperidin-4-yl)-3,4-dihydro-2H-chromene-6-carboxylic acid amide] showed an inhibition at 10 µM of 87%.
`Cc1ccc(NC(=O)NC2CCOc3ccc(C(=O)N(C)C4CCN(c5ccncc5)CC4)cc32)cc1Cl` (stereo not drawn) [CC_H-288, 4-[[(3-Chloro-4-methyl-phenyl)-carbamoyl]amino]-N-methyl-N-(1-pyridin-4-yl-piperidin-4-yl)-3,4-dihydro-2H-chromene-6-carboxylic acid amide] gave an inhibition at 10 µM of 69%.
For `CN(C(=O)c1ccc2c(c1)C(NC(=O)Nc1ccc(F)c(Cl)c1)CCO2)C1CCN(c2ccncc2)CC1` (stereo not drawn) [CC_H-289, 4-[[(3-Chloro-4-fluoro-phenyl)-carbamoyl]amino]-N-methyl-N-(1-pyridin-4-yl-piperidin-4-yl)-3,4-dihydro-2H-chromene-6-carboxylic acid amide], the inhibition at 10 µM was 77%.
`CN(C(=O)NC1CCOc2ccc(C(=O)N(C)C3CCN(c4ccncc4)CC3)cc21)c1ccccc1Cl` (stereo not drawn) [CC_H-292, 4-[[(2-Chlorophenyl)-methyl-carbamoyl]amino]-N-methyl-N-(1-pyridin-4-yl-piperidin-4-yl)-3,4-dihydro-2H-chromene-6-carboxylic acid amide] showed an inhibition at 10 µM of 102%.
`CC(C)CC(=O)NC1CCOc2ccc(C(=O)N(C)C3CCN(c4ccncc4)CC3)cc21` (stereo not drawn) [CC_H-293, N-Methyl-4-(3-methyl-butanoylamino)-N-(1-pyridin-4-yl-piperidin-4-yl)-3,4-dihydro-2H-chromene-6-carboxylic acid amide] was tested, and the inhibition at 10 µM was 109%.
For `Cc1cc(N2CCC(N(C)C(=O)c3ccc4c(c3)C(NC(=O)c3cc(F)ccc3Cl)CC4)CC2)cc(C)n1` (stereo not drawn) [CC_H-294, 3-[(2-Chloro-5-fluoro-benzoyl)amino]-N-[1-(2,6-dimethyl-pyridin-4-yl)-piperidin-4-yl]-N-methyl-2,3-dihydro-1H-indene-5-carboxylic acid amide], the inhibition at 10 µM was 111%.
`Cc1cc(N2CCC(N(C)C(=O)c3ccc4c(c3)C(NC(=O)c3c(F)ccc(C)c3Cl)CC4)CC2)cc(C)n1` (stereo not drawn) [CC_H-295, 3-[(2-Chloro-6-fluoro-3-methyl-benzoyl)amino]-N-[1-(2,6-dimethyl-pyridin-4-yl)-piperidin-4-yl]-N-methyl-2,3-dihydro-1H-indene-5-carboxylic acid amide] gave an inhibition at 10 µM of 111%.
Work on `Cc1cc(N2CCC(N(C)C(=O)c3ccc4c(c3)C(NC(=O)c3cc(Cl)ccc3Cl)CC4)CC2)cc(C)n1` (stereo not drawn) [CC_H-296, 3-[(2,5-Dichloro-benzoyl)amino]-N-[1-(2,6-dimethyl-pyridin-4-yl)-piperidin-4-yl]-N-methyl-2,3-dihydro-1H-indene-5-carboxylic acid amide] yielded an inhibition at 10 µM of 112%.
`Cc1cc(N2CCC(N(C)C(=O)c3ccc4c(c3)C(NC(=O)C3CCCCC3)CC4)CC2)cc(C)n1` (stereo not drawn) [CC_H-297, 3-(Cyclohexanecarbonylamino)-N-[1-(2,6-dimethyl-pyridin-4-yl)-piperidin-4-yl]-N-methyl-2,3-dihydro-1H-indene-5-carboxylic acid amide] was tested, and the inhibition at 10 µM was 110%.
`Cc1cc(N2CCC(N(C)C(=O)c3ccc4c(c3)C(NC(=O)C3CC3)CC4)CC2)cc(C)n1` (stereo not drawn) [CC_H-298, 3-(Cyclopropanecarbonylamino)-N-[1-(2,6-dimethyl-pyridin-4-yl)-piperidin-4-yl]-N-methyl-2,3-dihydro-1H-indene-5-carboxylic acid amide] was tested, and the inhibition at 10 µM was 101%.
In the case of `Cc1cc(N2CCC(N(C)C(=O)c3ccc4c(c3)C(NC(=O)CC(C)(C)C)CC4)CC2)cc(C)n1` (stereo not drawn) [CC_H-299, 3-(3,3-Dimethyl-butanoylamino)-N-[1-(2,6-dimethyl-pyridin-4-yl)-piperidin-4-yl]-N-methyl-2,3-dihydro-1H-indene-5-carboxylic acid amide], the inhibition at 10 µM is reported as 110%.
